From PubChem BioAssay (NCI)
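Step 1: Grow cells in 96-well plates. Step 2: Expose to compound for 48 hours at 5 concentrations. Step 3: Interpolate endpoints linearly; if unreached, use highest concentration. At the TGI there is no net growth.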

Experiments:
Test in all cases: inhibition of tumour cell growth, NCI panel, 48 h
SNB-75 CNS = system: SNB-75 CNS
KM12 colon = system: KM12 colon
MDA-MB-435 = system: MDA-MB-435
IGROV1 ovarian = system: IGROV1 ovarian
MDA-N = system: MDA-N
SK-OV-3 ovarian = system: SK-OV-3 ovarian
K-562 leukemia = system: K-562 leukemia
MDA-MB-231 breast = system: MDA-MB-231 breast
A549 NSCLC = system: A549 NSCLC
OVCAR-4 ovarian = system: OVCAR-4 ovarian
UO-31 renal = system: UO-31 renal
M14 melanoma = system: M14 melanoma
SF-268 CNS = system: SF-268 CNS
OVCAR-3 ovarian = system: OVCAR-3 ovarian
T-47D breast = system: T-47D breast
NCI-H226 lung = system: NCI-H226 lung
786-0 renal = system: 786-0 renal
PC-3 prostate = system: PC-3 prostate
U251 CNS = system: U251 CNS
NCI-H522 lung = system: NCI-H522 lung
A498 renal = system: A498 renal
SW-620 colon = system: SW-620 colon
HOP-62 NSCLC = system: HOP-62 NSCLC
HCT-15 colon = system: HCT-15 colon
NCI-H460 lung = system: NCI-H460 lung
NCI/ADR-RES ovarian = system: NCI/ADR-RES ovarian
ACHN renal = system: ACHN renal
RXF 393 renal = system: RXF 393 renal
SR leukemia = system: SR leukemia
SF-539 CNS = system: SF-539 CNS
SN12C renal = system: SN12C renal
UACC-62 melanoma = system: UACC-62 melanoma
LOX IMVI melanoma = system: LOX IMVI melanoma
HCC-2998 colon = system: HCC-2998 colon
HT29 colon = system: HT29 colon
SNB-19 CNS = system: SNB-19 CNS
MCF7 breast = system: MCF7 breast
MOLT-4 leukemia = system: MOLT-4 leukemia
EKVX NSCLC = system: EKVX NSCLC
HCT-116 colon = system: HCT-116 colon
BT-549 breast = system: BT-549 breast
COLO 205 colon = system: COLO 205 colon
SK-MEL-28 melanoma = system: SK-MEL-28 melanoma
CAKI-1 renal = system: CAKI-1 renal
OVCAR-5 ovarian = system: OVCAR-5 ovarian
UACC-257 melanoma = system: UACC-257 melanoma
SF-295 CNS = system: SF-295 CNS
TK-10 renal = system: TK-10 renal
SK-MEL-5 melanoma = system: SK-MEL-5 melanoma
HOP-92 NSCLC = system: HOP-92 NSCLC
MALME-3M melanoma = system: MALME-3M melanoma
DU-145 prostate = system: DU-145 prostate
NCI-H23 lung = system: NCI-H23 lung
OVCAR-8 ovarian = system: OVCAR-8 ovarian
SK-MEL-2 melanoma = system: SK-MEL-2 melanoma
RPMI-8226 leukemia = system: RPMI-8226 leukemia

In the case of `COc1ccc2c(c1)C(=O)CC1c3cnccc3C(=O)N21` (stereo unspecified), the TGI (SNB-75 CNS) is reported as > 100 µM, the TGI (KM12 colon) is reported as > 100 µM and the TGI (MDA-MB-435) is reported as > 31.6 µM. For the same compound, the TGI (IGROV1 ovarian) was > 100 µM, the TGI (MDA-N) was > 100 µM and the TGI (SK-OV-3 ovarian) was > 100 µM. For the same compound, the TGI (K-562 leukemia) was > 100 µM, the TGI (MDA-MB-231 breast) was > 100 µM and the TGI (A549 NSCLC) was > 100 µM. For the same compound, the TGI (OVCAR-4 ovarian) was > 100 µM, the TGI (UO-31 renal) was 99.5 µM and the TGI (M14 melanoma) was > 100 µM. For the same compound, the TGI (SF-268 CNS) was > 100 µM, the TGI (OVCAR-3 ovarian) was > 100 µM and the TGI (T-47D breast) was > 100 µM. The TGI (NCI-H226 lung) was > 100 µM, the TGI (786-0 renal) was > 100 µM and the TGI (PC-3 prostate) was > 100 µM. For the same compound, the TGI (U251 CNS) was > 100 µM, the TGI (NCI-H522 lung) was > 100 µM and the TGI (A498 renal) was > 100 µM. For the same compound, the TGI (SW-620 colon) was > 100 µM, the TGI (HOP-62 NSCLC) was > 100 µM and the TGI (HCT-15 colon) was > 100 µM. For the same compound, the TGI (NCI-H460 lung) was > 100 µM, the TGI (NCI/ADR-RES ovarian) was > 100 µM and the TGI (ACHN renal) was > 100 µM. The TGI (RXF 393 renal) was > 100 µM, the TGI (SR leukemia) was > 100 µM and the TGI (SF-539 CNS) was > 100 µM. For the same compound, the TGI (SN12C renal) was > 100 µM, the TGI (UACC-62 melanoma) was > 100 µM and the TGI (LOX IMVI melanoma) was > 100 µM. The TGI (HCC-2998 colon) was > 100 µM, the TGI (HT29 colon) was > 100 µM and the TGI (SNB-19 CNS) was > 100 µM. For the same compound, the TGI (MCF7 breast) was > 100 µM, the TGI (MOLT-4 leukemia) was > 100 µM and the TGI (EKVX NSCLC) was > 100 µM. The TGI (HCT-116 colon) was > 100 µM, the TGI (BT-549 breast) was > 100 µM and the TGI (COLO 205 colon) was > 100 µM. For the same compound, the TGI (SK-MEL-28 melanoma) was > 100 µM, the TGI (CAKI-1 renal) was > 100 µM and the TGI (OVCAR-5 ovarian) was > 100 µM. For the same compound, the TGI (UACC-257 melanoma) was > 100 µM, the TGI (SF-295 CNS) was > 100 µM and the TGI (TK-10 renal) was > 100 µM. For the same compound, the TGI (SK-MEL-5 melanoma) was > 100 µM, the TGI (HOP-92 NSCLC) was > 100 µM and the TGI (MALME-3M melanoma) was > 100 µM. For the same compound, the TGI (DU-145 prostate) was > 100 µM, the TGI (NCI-H23 lung) was > 100 µM and the TGI (OVCAR-8 ovarian) was > 100 µM. The TGI (SK-MEL-2 melanoma) was > 100 µM and the TGI (RPMI-8226 leukemia) was > 100 µM.
